Experiments:
[1] = test system: Barley shoot tips / mature embryo explants; assay: Multiple bud/shoot induction from barley mature embryo explants on bud induction media; type: in vivo; settings: for multiple bud/shoot induction in barley shoot tips: relatively high amount of cytokinin to 2,4-D, 2 weeks
Description: To induce multiple buds/shoots from the leaf base of Barley shoot tips post co-culture, we applied medium with a high relative amount of cytokinin to auxin (measured by either concentration or relative activity). Explants were generally on these bud induction medium for a total of 2 weeks, after which presence of multiple buds/shoots was assessed (phenotype shown in FIG. 21, with data summarized in boxplot form in FIG. 22). […] In some experiments, after 1 week on induction media without selection, explants were transferred to induction media with selection. During this 2-week period explants were kept at 27 C 16/8 photoperiod. It may be possible to reduce chimerism in T0 Barley plants by extending this shoot multiplication step to 4-8 weeks.(9)
We followed this experiment up examining removal of 2,4-D from the bud induction phase, as well as its replacement with either picloram or fipexide.

[2] = test system: LH244 maize iVAEs (immature embryos, 20 DAP); assay: Glyphosate sensitivity (selection titer) of dried, frozen, rehydrated maize iVAEs on Regeneration II medium; type: in vivo
Description: Maize iVAEs (Immature Value-Added Explants) were prepared following the methods outlined below, and viability and glyphosate sensitivity of the dried, stored embryos were tested. These iVAEs were incubated for four days in a drying chamber with MgNO3 saturated salts and then stored at s −20° C. These frozen iVAEs were later pulled from storage and used to determine process survival as well as used in an experiment to determine sensitivity to the herbicide glyphosate (Millipore Sigma Glyphosate “N-(Phosphonomethyl) glycine”; Cat #337757-5G) for future use as a selection agent for these novel explants.
Post Storage Rehydration Method of the iVAE embryos: Dried maize embryos (iVAEs) were placed on a sterile plate of Regeneration Medium II) and incubated at room temperature for 1 hour. Afterward, sterile water was added and embryos were incubated at room temperature for an additional hour followed by gentile agitation to complete the rehydration process. Embryos were then placed on experimental media to determine survival as well as sensitivity to glyphosate. The rehydrated maize iVAEs were placed on media plates, evenly spaced, and each plate was sealed with porous tissue culture tape and incubated in growth chamber at 26° C. with 16/8 light/dark photoperiod with 60 μmol m-2 s-1. For up to 56 days of observation.
20 DAP LH244 ears were collected from self-pollinated plants in the greenhouse. The embryos were extracted using the iVAE protocol. The extracted and cleaned embryos were placed in a drying chamber with MgNO3 saturated salts for 4 days. LH244 embryos were frozen for 4 days, or until used, at −20° C. in a hermetically closed 50 mL Falcon tube
LH244 embryos were rehydrated as described in Example 9. Following rehydration, plates were set up using Regeneration II Medium. The first replicate has 30 embryos per plate, and the second only 22 per plate. The measurements are standardized to the number of surviving embryos, as measured by the number of embryos displaying coleoptile elongation. A subset of embryos was tested for viability using tetrazolium chloride (TTC).
We analyzed this experiment by counting the percent germination, looking at stress phenotype and using the viability stain tetrazolium chloride (TTC). In general, during germination, green tissue is healthy, purple tissue is stressed and producing anthocyanins, and silver or white tissue is not producing chlorophyll.

c1ccc(CNc2ncnc3nc[nH]c23)cc1 [BAP, 6-benzylaminopurine]
multiple bud/shoot induction in barley shoot tips [1]: could induce multiple buds/shoots

O=C(Nc1ccccc1)Nc1cnns1 [TDZ, thidiazuron]
explant phenotype after 2 weeks on bud induction media ([1]; 3 ppm TDZ, 1 ppm 2,4-D): multiple shooting/budding phenotype | multiple bud/shoot induction in barley shoot tips [1]: could induce multiple buds/shoots

O=C(COc1ccc(Cl)cc1)N1CCN(Cc2ccc3c(c2)OCO3)CC1 [fipexide]
explant health versus controls ([1]; 3 ppm TDZ, 10 ppm fipexide): looked healthier than controls on 2,4-D media | explant phenotype after 2 weeks on bud induction media ([1]; 3 ppm TDZ, 10 ppm fipexide): multiple shooting/budding phenotype | explant phenotype after 2 weeks on bud induction media ([1]; 10 ppm fipexide, TDZ removed): germinating phenotype | explant phenotype after 2 weeks on bud induction media ([1]; 100 ppm fipexide): explant sensitivity

O=C(O)CNCP(=O)(O)O [glyphosate, N-(Phosphonomethyl) glycine]
damage (loss of greening shoots) ([2]; 10 μM glyphosate treatment plates, at 27 days): 90% | reduction in frequency of greening shoots (impairment) ([2]; 50 μM glyphosate treatment plates, 10 days after start): about 80% | glyphosate concentration giving apparent reduction of anthocyanins synthesis ([2]; after 49 days): ≥ 100 µM | anthocyanin production in treated embryos ([2]; in response to glyphosate): significant anthocyanin production

— US12022787B2, “Efficient monocot embryo extraction and preservation methods and novel uses thereof” (Wisconsin Alumni Research Foundation, priority 2019, dated 2024)
